Literature values in patent publication US4756118A, “Method and apparatus for the destruction of imported fire ants of the genus Solenopsis” (priority 1986, dated 1988).

What was measured:
[1] = relative to pyrethrum
Imported Fire Ant = conditions: poison bait

| Structure (SMILES) | Acute Oral LD50 | times more effective than pyrethrum [1] [times] | effectiveness in Imported Fire Ant control (Imported Fire Ant) |
| --- | --- | --- | --- |
| CC(C)=CC1C(C(=O)OCc2coc(Cc3ccccc3)c2)C1(C)C (centres unmarked) [Resmethrin, [5-(phenylmethyl)-3-furanyl]methyl 2,2-dimethyl-3-(2-methyl-1-propenyl)cyclopropanecarboxylate] | 4,420 mg./kg. | ~20 |  |
| ClC1(Cl)C2(Cl)C3(Cl)C4(Cl)C(Cl)(Cl)C5(Cl)C3(Cl)C1(Cl)C5(Cl)C24Cl (centres unmarked) [Mirex, dodecachloroocta-hydro-1,3,4-metheno-2H-cyclobuta(cd)pentalene] | 306 mg/kg |  | most effective chemical control agent |
| CC1(C)CNC(=NN=C(C=Cc2ccc(C(F)(F)F)cc2)C=Cc2ccc(C(F)(F)F)cc2)NC1 [Amdro] |  |  | very limited in its effectiveness |
